Data published in patent publication US20110053993A1, “PRODRUGS OF DESAZADESFERROTHIOCIN POLYETHER ANALOGUES AS METAL CHELATION AGENTS” (FERROKIN BIOSCIENCES, INC., priority 2009, published 2011).

Experiment: In vitro pharmacokinetic (metabolic) stability in human whole blood
Type: in vitro ADME
Conditions: 5 μM test compound, 37° C., time points 0, 0.5, 1, 4, 6 and 24 hours, LC/MS/MS, percent compound remaining
Protocol: In Vitro Pharmacokinetic Stability Evaluation
Compounds were tested for metabolic stability in human whole blood. Such testing is commonly undertaken prior to or along with advanced preclinical testing in order to identify compounds with desirable pharmacokinetic properties. Into each of 6 centrifuge tubes was added 2 μL of test compound and 198 μL of human whole blood, taken from normal, healthy volunteers, to achieve a final concentration of 5 μM. Tubes were then incubated at 37° C. at approximately 100 rpm on an orbital shaker. One of the tubes was taken at designated time points including 0, 0.5, 1, 4, 6 and 24 hours. The reaction was stopped by the addition of 4 volumes of cold methanol. Samples were centrifuged at 20,000 rpm for 20 minutes to precipitate protein. A 200 μL aliquot of the supernatant was used for LC/MS/MS analysis for each compound at each time point. All experiments were performed in duplicate. The LC system comprised a Shimadzu liquid chromatograph separation system equipped with degasser DGU-20A3, solvent delivery unit LC-20AD, system controller CBM-20A, column oven CTO-10ASVP and CTC Analytics HTC PAL System. Mass spectrometric analysis was performed using an API 4000 instrument from AB Inc. (Canada) with an ESI interface. The data acquisition and control system were created using Analyst 1.5 software from ABI Inc. All calculations were carried out using Microsoft Excel (2003). Percent compound remaining at each time point was estimated by determining the peak areas from extracted ion chromatograms.

Half Life [h] | SMILES
1 to 4 | COCCOCCOCCOc1cccc(C2=N[C@@](C)(C(=O)OC(C)C)CS2)c1O [Example 1, (S)-isopropyl 2-(2-hydroxy-3-(2-(2-(2-methoxyethoxy)ethoxy)ethoxy)phenyl)-4-methyl-4,5-dihydrothiazole-4-carboxylate]
>24 | COCCOCCOCCOc1cccc(C2=N[C@@](C)(C(=O)OC(C)C)CS2)c1OC(=O)N1CCCC1 [Example 2, (S)-isopropyl 2-(3-(2-(2-(2-methoxyethoxy)ethoxy)ethoxy)-2-(pyrrolidine-1-carbonyloxy)phenyl)-4-methyl-4,5-dihydrothiazole-4-carboxylate]
1 to 4 | COCCOCCOCCOc1cccc(C2=N[C@@](C)(C(=O)O)CS2)c1OC(=O)N1CCCC1 [Example 3, (S)-2-(3-(2-(2-(2-methoxyethoxy)ethoxy)ethoxy)-2-(pyrrolidine-1-carbonyloxy)phenyl)-4-methyl-4,5-dihydrothiazole-4-carboxylic acid]
6 to 24 | COCCOCCOCCOc1cccc(C2=N[C@@](C)(C(=O)O)CS2)c1OC(=O)C(C)C [Example 6, (S)-2-(2-(isobutyryloxy)-3-(2-(2-(2-methoxyethoxy)ethoxy)ethoxy)phenyl)-4-methyl-4,5-dihydrothiazole-4-carboxylic acid]

SMILES | Half Life [h]
COCCOCCOCCOc1cccc(C2=N[C@@](C)(C(=O)OC(C)C)CS2)c1OC(=O)N(C)c1ccccc1 [Example 4, (S)-isopropyl 2-(3-(2-(2-(2-methoxyethoxy)ethoxy)ethoxy)-2-(methyl(phenyl)carbamoyloxy)phenyl)-4-methyl-4,5-dihydrothiazole-4-carboxylate] | >24
COCCOCCOCCOc1cccc(C2=N[C@@](C)(C(=O)O)CS2)c1OC(=O)N(C)c1ccccc1 [Example 5, (S)-2-(3-(2-(2-(2-methoxyethoxy)ethoxy)ethoxy)-2-(methyl(phenyl)carbamoyloxy)phenyl)-4-methyl-4,5-dihydrothiazole-4-carboxylic acid] | 0.5 to 1
